{"source": "ChEMBL document CHEMBL5728747", "about": "“Benzimidazoles and indoles as taro inhibitors” (2021)", "note": "Values joined by “and” are separate entries in the source; they are usually repeats but may differ in a detail not shown here. Equal values may be shown once.", "data": [{"experiment": "TarO Biochemical Enzymatic Assay: The TarO biochemical enzymatic assay is a liquid chromatography-mass spectroscopy (LC-MS) based end point assay that measures C55-P-P-GlcNAc (LIPID III) production. The TarO biochemical enzymatic assay was performed in a 384-well microtiter plate (Labcyte) with a reaction volume of 20 μl. The reaction mix contained 0.1 μgs/μl of TarO membrane preparation derived from MRSA COL (lysostaphin/lysozyme treated, centrifuged at 40K rpm, and re-suspended in 50 mM Tris pH 7.5, 10 mM MgCl2), 1500 μM UDP-GlcNAc, ×75 μM C55-P substrates in 83 mM Tris pH 8.0, 6.7 mM MgCl2, 6 mM CHAPS, and 8.3% DMSO buffer. The enzyme reactions were quenched by extraction in 40 μl of 1-pentanol containing 0.04 μM 15C C55-PP-GlcNAc, which was used as an internal standard. A 10 μl volume of the quenched reaction mixture (pH≈3) from each well was injected onto a reversed-phase column (C4, 5 μm, 2.1×50 mm, Thermo Scientific Biobacis-4) and eluted using a NH4Ac/H2O/MeOH gradient (solvent A: 10 mM NH4Ac in water, pH 5.6; solvent B: NH4Ac (1 M)-Isopropanol (1:90, v/v, pH 5.6). The HPLC conditions were as follows: 15% solvent B for 15 seconds followed by a gradient to 90% solvent B in 90 seconds; then solvent B was kept at 95% for 10 seconds followed by a gradient to 8% solvent B in 0.1 minute. The column was then equilibrated at 15% B for 1 minute before the next injection. The flow rate was kept constant at 600 μl/minute. Mass spectrometric detection was carried out in the negative-ion mode using selected reaction monitoring (SRM). Typical mass spectrometric conditions were as follows: heated capillary temperature, 210° C.; spray voltage, 2500 V; desolvation gas (N2), 40 l/h; auxiliary gas (N2), 35 l/h. Selected ion current (SIC) chromatograms of C55-PP-GlcNAc and internal standard 15C C55-PP-GlcNAc were plotted and integrated using LCQuan incorporated in Xcalibur software (ThermoFinnigan). The linearity of C55-PP-GlcNAc concentration versus mass spectrometric signal (AC55-PP-GlcNAc/A15C-C55-PP-GlcNAc) was determined with purified C55-PP-GlcNAc. The IC50 values were calculated using the nonlinear regression analysis (sigmoidal dose response fit allowing for a variable slope) of percent inhibition data with minimum and maximum values set to 0 and 100 percent.", "values": [{"smiles": "CCN(C(=O)CCn1c(-c2ccc(C(=O)OC)cc2)nc2ccccc21)C1CCCCC1", "IC50": "0.13 µM"}, {"smiles": "CCN(C(=O)CCn1c2cc(CO)ccc2nc1[C@H]1CC[C@H](CC)CC1)C1CCCCC1", "IC50": "0.12 µM"}, {"smiles": "CCN(C(=O)CCn1c2ccc(F)cc2nc1[C@H]1CC[C@H](CC)CC1)C1CCCCC1", "IC50": "0.04 µM"}, {"smiles": "CCN(C(=O)CCn1c(C2CCCN(C(=O)OC(C)(C)C)C2)nc2cc(F)ccc21)C1CCCCC1", "note": "(centres undefined)", "IC50": "0.06 µM and 0.12 µM"}, {"smiles": "CCN(C(=O)CCn1c2cccc(F)c2nc1[C@H]1CC[C@H](CC)CC1)C1CCCCC1", "IC50": "0.03 µM"}, {"smiles": "CCN(C(=O)CCn1c(N2CCC(C)CC2)nc2ccccc21)C1CCCCC1", "IC50": "0.21 µM"}, {"smiles": "CCN(C(=O)CCn1c2ccc(Br)cc2nc1[C@H]1CC[C@H](CC)CC1)C1CCCCC1", "IC50": "0.01 µM"}, {"smiles": "CCN(C(=O)CCn1c2c(F)cccc2nc1[C@H]1CC[C@H](CC)CC1)C1CCCCC1", "IC50": "0.04 µM"}, {"smiles": "CCN(C(=O)CCn1c2cc(-c3cnn(C)c3)ccc2nc1[C@H]1CC[C@H](CC)CC1)C1CCCCC1", "IC50": "0.05 µM"}, {"smiles": "CCN(C(=O)CCn1c2cc(Br)ccc2nc1[C@H]1CC[C@H](CC)CC1)C1CCCCC1", "IC50": "0.03 µM"}, {"smiles": "CCN(C(=O)CCn1c(-c2ccc(OCC(F)(F)F)cc2)nc2ccccc21)C1CCCCC1", "IC50": "0.04 µM"}, {"smiles": "CCN(C(=O)CCn1c(C2CCCCC2)nc2ccccc21)C1CCCCC1", "IC50": "0.07 µM"}, {"smiles": "CCN(C(=O)CCn1c2cc(F)ccc2nc1[C@H]1CC[C@H](CC)CC1)C1CCCCC1", "IC50": "0.02 µM"}, {"smiles": "CCOC(=O)N1CCCC(c2nc3cc(F)ccc3n2CCC(=O)N(CC)C2CCCCC2)C1", "note": "(centres undefined)", "IC50": "0.11 µM and 0.29 µM"}, {"smiles": "CN(C(=O)CCn1c(C2CCCCC2)nc2ccccc21)C1CCCCC1", "IC50": "0.28 µM"}, {"smiles": "CCN(C(=O)CCn1c(N2CCC(C(C)(C)C)CC2)nc2ccccc21)C1CCCCC1", "IC50": "0.01 µM"}, {"smiles": "CCN(C(=O)CCn1c(-c2ccc(-n3ccnn3)cc2)nc2ccccc21)C1CCCCC1", "IC50": "3.77 µM"}, {"smiles": "CC1(C)[C@@H]2CC[C@@]1(C)[C@H](NC(=O)CCn1c(C3CCCCC3)nc3ccccc31)C2", "IC50": "0.2 µM"}, {"smiles": "CCN(C(=O)CCn1c2cccc(C[C@H]3CCOC3)c2nc1[C@H]1CC[C@H](CC)CC1)C1CCCCC1", "IC50": "0.52 µM"}, {"smiles": "CCN(C(=O)CCn1c(N2CCC(F)(F)CC2)nc2ccccc21)C1CCCCC1", "IC50": "0.22 µM"}, {"smiles": "CCN(C(=O)CCn1c2ccc(OC)cc2nc1[C@H]1CC[C@H](CC)CC1)C1CCCCC1", "IC50": "0.15 µM"}, {"smiles": "CCN(C(=O)CCn1c2ncccc2nc1[C@H]1CC[C@H](CC)CC1)C1CCCCC1", "IC50": "0.3 µM"}, {"smiles": "CCN(C(=O)CCn1c2cccc(N3CCOCC3)c2nc1[C@H]1CC[C@H](CC)CC1)C1CCCCC1", "IC50": "3.44 µM"}, {"smiles": "CCc1nsc(N2CCCC(c3nc4ccccc4n3CCC(=O)N(CC)C3CCCCC3)C2)n1", "note": "(centres undefined)", "IC50": "0.08 µM"}, {"smiles": "CCCOC(=O)N1CCCC(c2nc3ccccc3n2CCC(=O)N(CC)C2CCCCC2)C1", "note": "(centres undefined)", "IC50": "0.15 µM"}, {"smiles": "CCN(C(=O)CCn1c2cc(C[C@H]3CCOC3)ccc2nc1[C@H]1CC[C@H](CC)CC1)C1CCCCC1", "IC50": "0.38 µM"}, {"smiles": "CCN(C(=O)CCn1c2ccncc2nc1[C@H]1CC[C@H](CC)CC1)C1CCCCC1", "IC50": "0.15 µM"}, {"smiles": "CCN(C(=O)CCn1c2cc(CN)ccc2nc1[C@H]1CC[C@H](CC)CC1)C1CCCCC1", "IC50": "7.32 µM"}, {"smiles": "CC(C)(C)OC(=O)NCC1CCC(c2nc3ccccc3n2CCC(=O)NC2C[C@H]3CC[C@]2(C)C3(C)C)CC1", "note": "(some centres undefined)", "IC50": "1.35 µM"}, {"smiles": "CCOc1ccc(-c2nc3ccccc3n2CCC(=O)N(CC)C2CCCCC2)cn1", "IC50": "0.24 µM"}, {"smiles": "CCN(C(=O)CCn1c(C2CCCN(C(=O)OC(C)C)C2)nc2ccccc21)C1CCCCC1", "note": "(centres undefined)", "IC50": "0.26 µM"}, {"smiles": "CCCCOC(=O)N1CCCC(c2nc3ccccc3n2CCC(=O)N(CC)C2CCCCC2)C1", "note": "(centres undefined)", "IC50": "0.07 µM"}, {"smiles": "CCOC(=O)N1CCCC(c2nc3ccc(F)cc3n2CCC(=O)N(CC)C2CCCCC2)C1", "note": "(centres undefined)", "IC50": "1.09 µM"}, {"smiles": "CCN(C(=O)CCn1c2cc(C#N)ccc2nc1[C@H]1CC[C@H](CC)CC1)C1CCCCC1", "IC50": "0.79 µM"}, {"smiles": "CCN(C(=O)CCn1c(CN2CCC(C(C)(C)C)CC2)nc2ccccc21)C1CCCCC1", "IC50": "0.1 µM"}, {"smiles": "CCN(C(=O)CCn1c(C2CCC(C)N(c3cccc(OC)n3)C2)nc2ccccc21)C1CCCCC1", "note": "(centres undefined)", "IC50": "0.02 µM"}, {"smiles": "CC1CCN(C(=O)CCn2c(C3CCCCC3)nc3ccccc32)CC1", "IC50": "2.34 µM"}, {"smiles": "CCC1CCN(Cc2nc3cc(C)ccc3n2CCC(=O)N(CC)C2CCCCC2)CC1", "IC50": "1.05 µM"}, {"smiles": "CCC1CCN(Cc2nc3ccccc3n2CCC(=O)N(CC)C2CCCCC2)CC1", "IC50": "0.21 µM"}, {"smiles": "CCN(C(=O)CCn1c(C2CCCN(c3nccc(OC)n3)C2)nc2ccccc21)C1CCCCC1", "note": "(centres undefined)", "IC50": "0.08 µM"}, {"smiles": "CCN(C(=O)CCn1c2ccc(C#N)cc2nc1[C@H]1CC[C@H](CC)CC1)C1CCCCC1", "IC50": "0.42 µM"}, {"smiles": "CCN(C(=O)CCn1c2cnccc2nc1[C@H]1CC[C@H](CC)CC1)C1CCCCC1", "IC50": "0.84 µM"}, {"smiles": "CCN(C(=O)CCn1c(C2CCC(C)N(c3nccc(OC)n3)C2)nc2ccccc21)C1CCCCC1", "note": "(centres undefined)", "IC50": "0.14 µM"}, {"smiles": "CCN(C(=O)CCn1c2cc(CN3CC(F)(F)C3)ccc2nc1[C@H]1CC[C@H](CC)CC1)C1CCCCC1", "IC50": "1.77 µM"}, {"smiles": "CCN(C(=O)CCn1c2ccc(C(F)(F)F)cc2nc1[C@H]1CC[C@H](CC)CC1)C1CCCCC1", "IC50": "0.01 µM"}, {"smiles": "CCN(C(=O)CCn1c2cccc(C(F)F)c2nc1[C@H]1CC[C@H](C)CC1)C1CCCCC1", "IC50": "0.36 µM"}, {"smiles": "CCN(C(=O)CCn1c(C2CCCN(c3cccc(OC)n3)C2)nc2ccccc21)C1CCCCC1", "note": "(centres undefined)", "IC50": "0.01 µM"}, {"smiles": "CCN(C(=O)CCn1c(C2CCN(C(=O)OC(C)(C)C)C2)nc2cc(F)ccc21)C1CCCCC1", "note": "(centres undefined)", "IC50": "0.4 µM"}, {"smiles": "CCN(C(=O)CCn1c(N2CCC(C(F)F)CC2)nc2ccccc21)C1CCCCC1", "IC50": "0.17 µM"}, {"smiles": "CCN(C(=O)CCn1c2cc(CN3CCN(CC(F)(F)F)CC3)ccc2nc1[C@H]1CC[C@H](CC)CC1)C1CCCCC1", "IC50": "1.48 µM"}, {"smiles": "CCN(C(=O)CCn1c2cccnc2nc1[C@H]1CC[C@H](CC)CC1)C1CCCCC1", "IC50": "0.66 µM"}, {"smiles": "CCN(C(=O)CCn1c2ccc(CO)cc2nc1[C@H]1CC[C@H](CC)CC1)C1CCCCC1", "IC50": "0.77 µM"}, {"smiles": "CCCOC(=O)N1CC(c2nc3ccccc3n2CCC(=O)N(CC)C2CCCCC2)CCC1C", "note": "(centres undefined)", "IC50": "0.11 µM"}, {"smiles": "CCN(C(=O)CCn1c(C2CCCN(c3ccccn3)C2)nc2ccccc21)C1CCCCC1", "note": "(centres undefined)", "IC50": "0.09 µM"}, {"smiles": "CCN(C(=O)CCn1c(N2CCC[C@H](NC(=O)OC(C)(C)C)C2)nc2ccccc21)C1CCCCC1", "IC50": "7.99 µM"}, {"smiles": "CC(C)(C)OC(=O)N1CCC(c2nc3ccccc3n2CCC(=O)NC2C[C@H]3CC[C@]2(C)C3(C)C)C1", "note": "(some centres undefined)", "IC50": "3.4 µM"}, {"smiles": "CCN(C(=O)CCn1c2ccc(C3CC3)cc2nc1[C@H]1CC[C@H](CC)CC1)C1CCCCC1", "IC50": "0.13 µM"}, {"smiles": "CCN(C(=O)CCn1c(C2CCCN(c3nccc(C)n3)C2)nc2ccccc21)C1CCCCC1", "note": "(centres undefined)", "IC50": "0.23 µM"}, {"smiles": "CC1(C)[C@@H]2CC[C@@]1(C)[C@H](NC(=O)CCn1c3ccccc3nc1[C@H]1CC[C@@H](C(C)(C)C)CC1)C2", "IC50": "0.06 µM"}]}]}
